Assay results reported in patent US7544668B2, “Saponins derived from Ilex pubescens and method of purifying the same” (priority 2006, dated 2009).

Columns and labels:
[1] = system: histamine-induced paw edema; test: histamine induced paw edema in rats; type: in vivo, SD rats; conditions: 10 mg/kg oral
Experimental: Animal Material. Male and female ICR mice weighing 18-24 g and male SD rats weighing 150-210 g were purchased from the Laboratory Animal Services Center, the Chinese University of Hong Kong, Hong Kong. The animals were acclimated for more than 1 week under 12 hours light and 12 hours dark cycle at room temperature of 22±1° C. Chow diet and water were provided ad libitum. Animal care and treatment procedures conformed to the Institutional Guidelines and Animal Ordinance (Department of Health, Hong Kong Special Administrative Region.) Mice and rats were fasted for 16 hours and 48 hours, respectively, before experiment. Mode of Administration. The PSF solutions for anti-inflammatory and analgesic experiments were prepared by dissolving the product in 30% propanediol solution (for i.p. injection) and 0.5% (w/v) carboxymethylcellulose sodium salt (CMC—Na) (for orally administration), respectively. The reference drug indomethacin for anti-inflammatory test was dissolved in a vehicle that consisted of 10% peanut oil, 10% Tween-80 and 80% distilled water. Rotundine was suspended in 0.5% (w/v) CMC—Na salt and used as reference drug for anti-nociceptive experiment. The volumes (ml) of both hind paws were measured using a plethysmometer (Plethysmometer 7150, UGO Basile, Italy) at 1 hour before the induction and 1, 2, 3, 4, 6, and 8 hours after the induction. The increased volumes (paw edema) of the right hind paws of rats were calculated by the following equation: the increased rate (%)=(B−A)/A×100, where A and B represent the paw volumes before and at different time points after the induction, respectively. The acute inflammation in the hind paws was induced by the subcutaneous injection of 0.05 ml 1% prepared solutions of histamine into right hind paws of rats. The left hind paws were used as controls. Administration of PSF (12.5 mg/kg, 25 mg/kg, 50 mg/kg, 100 mg/kg body weight, i.p. injection), or of the vehicle (30% propanediol) was performed at 10 minutes prior to carrageenan injection. Indomethacin was orally administrated at 1 hour before the induction. The volumes of the injected and control paws were measured at different time points designed from 0.5 to 4 hours after injection of histamine. The increased rates in paw volume were calculated in the same way as in carrageenan.

[2] = system: carrageenan-induced paw edema; test: carrageenan induced paw edema in rats; type: in vivo, SD rats; conditions: 10 mg/kg oral
Experimental: Animal Material. Male and female ICR mice weighing 18-24 g and male SD rats weighing 150-210 g were purchased from the Laboratory Animal Services Center, the Chinese University of Hong Kong, Hong Kong. The animals were acclimated for more than 1 week under 12 hours light and 12 hours dark cycle at room temperature of 22±1° C. Chow diet and water were provided ad libitum. Animal care and treatment procedures conformed to the Institutional Guidelines and Animal Ordinance (Department of Health, Hong Kong Special Administrative Region.) Mice and rats were fasted for 16 hours and 48 hours, respectively, before experiment. Mode of Administration. The PSF solutions for anti-inflammatory and analgesic experiments were prepared by dissolving the product in 30% propanediol solution (for i.p. injection) and 0.5% (w/v) carboxymethylcellulose sodium salt (CMC—Na) (for orally administration), respectively. The reference drug indomethacin for anti-inflammatory test was dissolved in a vehicle that consisted of 10% peanut oil, 10% Tween-80 and 80% distilled water. Rotundine was suspended in 0.5% (w/v) CMC—Na salt and used as reference drug for anti-nociceptive experiment. The experiment was conducted as previously described by Winter^1. At the induction, each rat was injected with 0.1 ml freshly prepared carrageenan (1% w/v) in physiological saline (0.9% w/v NaCl) into subplantar tissues of the right hind paw. The left hind paws without injection were used as controls. PSF was i.p. administrated 10 minutes prior to carrageenan injection. Control animals received an appropriate volume of 30% propanediol. Indomethacin was orally administrated 1 hr before the carrageenan injection as a reference drug. The volumes (ml) of both hind paws were measured using a plethysmometer (Plethysmometer 7150, UGO Basile, Italy) at 1 hour before the induction and 1, 2, 3, 4, 6, and 8 hours after the induction. The increased volumes (paw edema) of the right hind paws of rats were calculated by the following equation: the increased rate (%)=(B−A)/A×100, where A and B represent the paw volumes before and at different time points after the induction, respectively.

[3] = system: radiant heat stimulation-induced tail flick reaction; test: tail flick test, radiant heat stimulation in mice; type: in vivo, ICR mice; conditions: for Tail flick reaction time: 50 mg/kg oral
Experimental: Animal Material. Male and female ICR mice weighing 18-24 g and male SD rats weighing 150-210 g were purchased from the Laboratory Animal Services Center, the Chinese University of Hong Kong, Hong Kong. The animals were acclimated for more than 1 week under 12 hours light and 12 hours dark cycle at room temperature of 22±1° C. Chow diet and water were provided ad libitum. Animal care and treatment procedures conformed to the Institutional Guidelines and Animal Ordinance (Department of Health, Hong Kong Special Administrative Region.) Mice and rats were fasted for 16 hours and 48 hours, respectively, before experiment.
Mode of Administration. The PSF solutions for anti-inflammatory and analgesic experiments were prepared by dissolving the product in 30% propanediol solution (for i.p. injection) and 0.5% (w/v) carboxymethylcellulose sodium salt (CMC—Na) (for orally administration), respectively. The reference drug indomethacin for anti-inflammatory test was dissolved in a vehicle that consisted of 10% peanut oil, 10% Tween-80 and 80% distilled water. Rotundine was suspended in 0.5% (w/v) CMC—Na salt and used as reference drug for anti-nociceptive experiment.
The anti-nociceptive effects of PSF and the reference drug, expressed as the time required for mice tail flick after exposure to a source of radiant heat, were evaluated according to the description of d'Amour^3. […] The tail-flick response was elicited by applying radiant heat to the point ⅓ of length away from the tip of the tail. The apparatus was arranged so that when the operator turned on the lamp a timer was activated. When the mice felt pain and flicked its tail, light fell on the photocell such that the timer was automatically stopped. The intensity of the heat stimulus in the tail-flick test was adjusted so that the animal flicked its tail within 3 to 6 seconds. A 12 seconds cut-off time was set in order to prevent tail tissues from damage. Before the experiment, the heat stimulation latency of all animals was tested, and those with response time to heat stimulation from […] were excluded. The tail-flick response was measured at 0.5, 1, and 2 hours after oral administration of PSF (200, 100 and 50 mg/kg body weight) or rotundine (50 mg/kg, as reference drug) or vehicle.

[4] = system: acetic acid induced writhing response; test: abdominal writhing test induced by acetic acid in mice; type: in vivo, ICR mice
Experimental: Animal Material. Male and female ICR mice weighing 18-24 g and male SD rats weighing 150-210 g were purchased from the Laboratory Animal Services Center, the Chinese University of Hong Kong, Hong Kong. The animals were acclimated for more than 1 week under 12 hours light and 12 hours dark cycle at room temperature of 22±1° C. Chow diet and water were provided ad libitum. Animal care and treatment procedures conformed to the Institutional Guidelines and Animal Ordinance (Department of Health, Hong Kong Special Administrative Region.) Mice and rats were fasted for 16 hours and 48 hours, respectively, before experiment. Mode of Administration. The PSF solutions for anti-inflammatory and analgesic experiments were prepared by dissolving the product in 30% propanediol solution (for i.p. injection) and 0.5% (w/v) carboxymethylcellulose sodium salt (CMC—Na) (for orally administration), respectively. The reference drug indomethacin for anti-inflammatory test was dissolved in a vehicle that consisted of 10% peanut oil, 10% Tween-80 and 80% distilled water. Rotundine was suspended in 0.5% (w/v) CMC—Na salt and used as reference drug for anti-nociceptive experiment. The abdominal writhing test induced by chemical stimulation of acetic acid was performed in mice as originally described by Siegmund^2. […] Rotundine was orally administrated 1 hour before acetic acid injection. After intraperitoneal injection of 0.2 ml acetic acid (0.8% w/v) in physiological saline (0.9% w/v NaCl), animals were isolated for observation. The numbers of abdominal writhing syndrome/events, which consisted of the contraction of the abdominal area with extension of hind legs, were recorded during a 15 minutes period in each animal.

[5] = oral, in comparison with vehicle-treated animals

COc1ccc2c(c1)c(CC(=O)O)c(C)n2C(=O)c1ccc(Cl)cc1 [Indomethacin]
Change in paw swelling after histamine injection (%) ([1]; 0.5 h after histamine): 29.72 ± 10.67%
Change in paw swelling after histamine injection (%) ([1]; 1 h after histamine): 14.64 ± 9.21 %
Change in paw swelling after histamine injection (%) ([1]; 2 h after histamine): 11.51 ± 6.61 %
Change in paw swelling after histamine injection (%) ([1]; 3 h after histamine): 11.35 ± 7.35%
Change in paw swelling after histamine injection (%) ([1]; 4 h after histamine): 7.43 ± 6.05 %
Change in paw swelling after histamine injection (%) ([1]; 6 h after histamine): 4.17 ± 6.05%
effect on histamine-induced edema ([1]; at a later time than PSF): significant inhibitory effect
Changes in swelling percentage after carrageenan injection (%) ([2]; 1 h after carrageenan): 8.54 ± 4.97 %
Changes in swelling percentage after carrageenan injection (%) ([2]; 2 h after carrageenan): 10.80 ± 7.77 %
Changes in swelling percentage after carrageenan injection (%) ([2]; 3 h after carrageenan): 9.49 ± 6.63 %
Changes in swelling percentage after carrageenan injection (%) ([2]; 4 h after carrageenan): 13.53 ± 10.13 %
Changes in swelling percentage after carrageenan injection (%) ([2]; 6 h after carrageenan): 17.43 ± 9.21 %
Changes in swelling percentage after carrageenan injection (%) ([2]; 8 h after carrageenan): 34.70 ± 9.21%

COc1cc2c(cc1OC)[C@@H]1Cc3ccc(OC)c(OC)c3CN1CC2 [Rotundine]
Tail flick reaction time ([3]; 0.5 h after administration): 7.552 ± 3.301 s
Tail flick reaction time ([3]; 1 h after administration): 11.044 ± 1.658 s
Tail flick reaction time ([3]; 2 h after administration): 9.813 ± 3.069 s
Tail flick reaction time ([3]; time 0): 4.223 ± 0.458 s
effect on tail flick reaction time of mice [3, 5]: prolonged the reaction time
Inhibition (%) ([4]; 50 mg/kg oral 1 hour before acetic acid): 100%
Writhing count ([4]; 50 mg/kg oral 1 hour before acetic acid, 15 minutes period): 0.00 ± 0.00
effect on number of writhing episodes of mice [4, 5]: complete analgesia
